This passage reports TGI and GI50 results from PubChem BioAssay (NCI).

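Growth conditions: 96-well plates. Treatment: test compound, 48 hours, 5 concentrations. Analysis: linear interpolation between bracketing concentrations; unreached endpoints set to highest concentration. GI50 is the concentration that inhibits growth by half. Definition used: TGI = concentration required for complete inhibition of growth.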 Where a SMILES comes first, the peptide text is derived from it. [ ]: non-standard residue; d: D form. ξ: configuration not given here. Pentanoyl(2-O,4-OH,5-Cl) = O=C(O)C(O)CC(O)CCl; Ile(3ξ) = CCC(C)[C@H](N)C(=O)O; NMeV = CN[C@H](C(=O)O)C(C)C; NMeA = CN[C@@H](C)C(=O)O; βAla = NCCC(=O)O

Holding throughout (experiment): inhibition of tumour cell growth, NCI panel, 48 h
For assay [1], the system named is SNB-19 CNS.
In assay [2] the test system is MDA-MB-435.
In assay [3] the test system is U251 CNS.
The subject of assay [4] is HCT-116 colon.
Assay [5] concerns SF-295 CNS.
The test system of assay [6] is ACHN renal.
In assay [7] the test system is CCRF-CEM leukemia.
Assay [8] has as its system DU-145 prostate.
Assay [9] relates to CAKI-1 renal.
In assay [10] the test system is UO-31 renal.

Consider `Clc1ccc(NCNC2Nc3ccccc3N2)cc1Cl`, for which the TGI in assay [1] was more than 100 µM; in assay [2], 93.2 µM; in assay [3], more than 100 µM; in assay [4], more than 100 µM; in assay [5], more than 100 µM; in assay [6], more than 100 µM. Moreover, the TGI in assay [7], in assay [8], in assay [9] and in [10] was more than 100 µM in each case.

As to `O=C(c1ccccc1)c1nc2ccc(Cl)cc2cc1C(Br)Br`, the TGI in assay [1] is 1.42 µM; in assay [2], 1.14 µM; in assay [3], 0.674 µM; in [4], 0.34 µM; in [5], 0.939 µM; in assay [6] it was 0.662 µM. Moreover, the TGI in assay [7] came out at 7.11 µM; in [8], 1.97 µM; in [9], 1.75 µM; in [10] it was 1.27 µM.

Consider `O=c1[nH]c(=O)n(Cc2ccc(C34CC5CC(CC(C5)C3)C4)c(O)c2)cc1F`, for which the GI50 in [1] was 15.6 µM; in assay [2], 3.67 µM; in [3], 12.3 µM; in assay [4], 13.3 µM; in assay [5], 9.62 µM; in assay [6], 12.5 µM. Moreover, the GI50 is 16.7 µM in [8], 17.7 µM in assay [9] and 14.2 µM in [10]. Also, the TGI in assay [1] is 34 µM; in [2] it was 15.4 µM; in assay [3] it was 24.9 µM; in assay [4], 28.5 µM; in assay [5] it was 27.2 µM; in assay [6], 25.2 µM. Further, the TGI in [8] came to 32.4 µM; in assay [9], 37.5 µM; in assay [10] it was 29.8 µM.

`CCC(C)[C@@H]1NC(=O)[C@@H]2CCCN2C(=O)C(CC(O)CCl)OC(=O)CCNC(=O)[C@H](C)N(C)C(=O)[C@H](C(C)C)N(C)C1=O` (stereo partly specified) (cyclo([Ile(3ξ)][NMeV][NMeA][βAla][Pentanoyl(2-O,4-OH,5-Cl)]P)): the TGI in assay [1] is more than 100 µM; in assay [2], more than 100 µM; in [3] it was more than 100 µM; in [4] it was more than 100 µM; in assay [5], 70.4 µM; in assay [6], more than 100 µM. Also, the TGI in assay [7], in assay [8], in assay [9] and in assay [10] was more than 100 µM throughout.

Turning to `CN1CCN(c2cc(F)c(NC3=C(Cl)C(=O)c4ncccc4C3=O)c(F)c2)CC1`, the GI50 is 1.94 µM in assay [1]; 1.66 µM in assay [2]; 1.8 µM in [3]; 0.646 µM in [4]; 1.68 µM in [5]; 1.53 µM in assay [6]. In addition, the GI50 in assay [8] was 1.45 µM; in [9], 1.27 µM; in [10] it was 1.39 µM. In addition, the TGI came out at 3.9 µM in assay [1]; 3.2 µM in [2]; 3.44 µM in assay [3]; 2.26 µM in assay [4]; 3.23 µM in assay [5]; 2.9 µM in [6]. In addition, the TGI in assay [8] stood at 2.94 µM; in [9] it was 2.52 µM; in [10], 2.72 µM.

Turning to `COc1ccc2c(c1)c(-c1ccc(-c3cn(C)c4ccc(OC)cc34)s1)cn2C`, the GI50 in assay [1], in assay [2], in assay [3], in [4], in assay [5] and in assay [6] was more than 100 µM each time. The GI50 in [8], in assay [9] and in assay [10] was more than 100 µM in each case. In addition, the TGI in assay [1], in assay [2], in assay [3], in assay [4], in [5] and in [6] was more than 100 µM each time. Moreover, the TGI in assay [8], in assay [9] and in assay [10] was more than 100 µM in each case.

Consider `CC(NC(=O)c1ccc(Cl)c(Cl)c1)c1ccc(-c2ccccc2)cc1` (stereo unspecified), for which the TGI in assay [1] was 46.7 µM; in assay [2], more than 100 µM; in assay [3] it was more than 100 µM; in [4], more than 100 µM; in assay [5] it was more than 100 µM; in assay [6], more than 100 µM. In addition, the TGI in assay [8] is 57.5 µM; in [9] it was more than 100 µM; in assay [10], 29.4 µM.

On to `CCOC(=O)c1sc2nc(=S)[nH]c(NC(N)=S)c2c1C`, for which the GI50 in assay [1] is 28.1 µM; in assay [2] it was 30.5 µM; in assay [3], 17.2 µM; in assay [5], 24.4 µM; in assay [6], 15.7 µM; in assay [7] it was 7.22 µM. In addition, the results for the GI50 in [8], in [9] and in [10] were 15.4 µM, 31.4 µM and 20.3 µM, respectively. For the same compound, the TGI in assay [1] was more than 100 µM; in [2] it was 70.3 µM; in assay [3] it was 36.8 µM; in assay [5] it was 65.8 µM; in assay [6] it was 32.8 µM; in assay [7] it was 73.9 µM. The values for the TGI in assay [8], in [9] and in assay [10] were 39.4 µM, 61.7 µM and 61.7 µM, respectively.

In the case of `CCCCCCCCCCCC(c1ccccc1)[N+](C)(C)C` (stereo unspecified), the GI50 in [2] was 1.35 µM; in assay [3], 1.14 µM; in assay [5] it was 2.32 µM; in assay [6], 4.93 µM; in [7] it was 1.41 µM; in assay [8] it was 1.56 µM. Moreover, the GI50 in [9] was 9.98 µM; in assay [10], 10.7 µM. Moreover, the TGI in [2] was determined as 3.05 µM; in [3] it was 2.49 µM; in assay [5], 8.9 µM; in [6], 26.1 µM; in assay [7], 4.12 µM; in [8], 7.51 µM. The TGI in [9] stood at 26 µM; in assay [10], 26.9 µM.

As to `Cc1ccc(/C=C/C(=O)c2ccc(F)cc2)s1`, the GI50 in assay [1] was 11.3 µM; in [2], 1.77 µM; in [3], 2.85 µM; in assay [4] it was 1.86 µM; in assay [5], 5.38 µM; in [6] it was 2.26 µM. The GI50 in [8] is 3.41 µM; in [9], 1.78 µM; in assay [10], 1.69 µM. Besides, the TGI is 24.4 µM in [1]; 3.7 µM in assay [2]; 11.2 µM in assay [3]; 3.37 µM in assay [4]; 18.8 µM in assay [5]; 4.52 µM in [6]. The TGI in assay [8] stood at 11.2 µM; in assay [9] it was 3.72 µM; in assay [10] it was 4.04 µM.

On to `C=CCn1c(SCC(=O)Nc2ccc(C(=O)/C=C/c3cc(OC)c(OC)c(OC)c3)cc2)nnc1-c1cc(OC)c(OC)c(OC)c1`, for which the GI50 in assay [1] was 4.3 µM; in [2], 2.72 µM; in assay [3], 2.15 µM; in [4], 2.09 µM; in assay [5], 5.25 µM; in assay [6], 4.16 µM. Further, the GI50 in assay [7] was 3.33 µM; in [8] it was 6.09 µM; in assay [10] it was 4.18 µM. The TGI is 73.2 µM in assay [1]; 10.7 µM in [2]; 5.38 µM in assay [3]; 5.12 µM in assay [4]; more than 100 µM in assay [5]; 20.6 µM in [6]. Also, the TGI in [7] is more than 100 µM; in assay [8] it was more than 100 µM; in assay [10] it was 17.5 µM.

On to `Oc1ccc(CCNc2nc3ccccc3c3[nH]c4ccccc4c23)cc1O`, for which the GI50 in assay [1] was 3.06 µM; in assay [2], 1.7 µM; in [3], 2.53 µM; in [4] it was 1.4 µM; in [5] it was 5.51 µM; in assay [6], 2.14 µM. Further, the GI50 was 1.59 µM in assay [7], 2.45 µM in [8] and 11 µM in assay [9]. Besides, the TGI in assay [1] is 11.2 µM; in assay [2] it was 3.26 µM; in assay [3], 6.51 µM; in [4], 2.7 µM; in [5], more than 100 µM; in [6], 5.76 µM. The results for the TGI in [7], in assay [8] and in assay [9] were 4.35 µM, 7.44 µM and 22.9 µM, respectively.

Consider `[Cu].c1ccc2c(c1)C1=NC2=NC2=NC(=NC3=NC(=NC4=NC(=N1)c1ccccc14)c1ccccc13)c1ccccc12`, for which the GI50 in [1], in [2], in assay [3], in [4], in assay [5] and in [6] was more than 100 µM each time. Further, the GI50 in [8], in assay [9] and in assay [10] was more than 100 µM each time. For the same compound, the TGI in [1], in assay [2], in assay [3], in [4], in [5] and in assay [6] was more than 100 µM throughout. In addition, the TGI in assay [8], in assay [9] and in [10] was more than 100 µM each time.

For `O=C(O)CN(CCN(CC(=O)O)CC(=O)O)CCN(CC(=O)O)CC(=O)O`, the GI50 in [1] was 5.18 µM; in assay [2], 3.94 µM; in assay [3], 4.14 µM; in assay [4], 3.42 µM; in assay [5], 3.25 µM; in assay [6], 2.59 µM. Moreover, the values for the GI50 in assay [7], in assay [8] and in assay [9] were 3.18 µM, 2.94 µM and 3.58 µM, respectively. Besides, the TGI in assay [1] amounted to 61.6 µM; in [2], 21.8 µM; in [3], 21.2 µM; in assay [4], 12.7 µM; in [5] it was 21.3 µM; in assay [6], 13.6 µM. The TGI in assay [7] is more than 100 µM; in assay [8] it was 8.82 µM; in [9], 20.2 µM.

Turning to `c1ccc2[nH]c(-c3ccc(Nc4nc(N5CCCC5)nc5[nH]ncc45)cc3)nc2c1`, the GI50 in assay [2] is 1.48 µM; in [3] it was 0.185 µM; in assay [4], 0.203 µM; in [5], 0.204 µM; in assay [6] it was 0.347 µM; in [7] it was 0.294 µM. In addition, the results for the GI50 in assay [8], in assay [9] and in [10] were 1.13 µM, 1.83 µM and 1.46 µM, respectively. In addition, the TGI in assay [2] came out at 3.08 µM; in [3] it was 0.39 µM; in [4] it was 0.473 µM; in assay [5] it was 0.477 µM; in assay [6], 1.07 µM; in assay [7], 0.967 µM. In addition, the TGI is 2.77 µM in assay [8], 3.48 µM in assay [9] and 3.54 µM in assay [10].

As to `Clc1ccc2c(NC3CCC(NC4CCCCC4)CC3)ccnc2c1` (stereo unspecified), the GI50 was 21.3 µM in assay [1]; 2.11 µM in assay [2]; 3.6 µM in assay [3]; 3.26 µM in assay [4]; 1.92 µM in assay [5]; 4.85 µM in assay [6]. Moreover, the GI50 is 13.3 µM in [8], 1.81 µM in assay [9] and 3.42 µM in assay [10]. The TGI was determined as 89.8 µM in assay [1]; 5.51 µM in [2]; 13.3 µM in assay [3]; 13.9 µM in [4]; 5.19 µM in assay [5]; 17.1 µM in [6]. Besides, the values for the TGI in [8], in assay [9] and in [10] were 33.6 µM, 6.63 µM and 16 µM, respectively.

Turning to `CCN(Cc1ccccc1)c1ccc(/C=C2\COc3ccccc3C2=O)cc1`, the GI50 in [1] is more than 1000 µM; in assay [2] it was 47 µM; in assay [3], more than 1000 µM; in assay [4] it was 270 µM; in [5] it was more than 1000 µM; in [6], more than 1000 µM. Besides, the GI50 in [7] is 73.5 µM; in [8] it was more than 1000 µM; in [10] it was 286 µM. In addition, the TGI in assay [1] was more than 1000 µM; in assay [2], 458 µM; in assay [3], more than 1000 µM; in assay [4], more than 1000 µM; in [5], more than 1000 µM; in assay [6], more than 1000 µM. In addition, the TGI in assay [7], in assay [8] and in [10] was more than 1000 µM throughout.
